# In the NIST ThermoML archive (doi:10.1021/je0340046):
# Values joined by “and” are separate entries in the source; they are usually repeats but may differ in a detail not shown here. Equal entries are not always repeated. ± gives the expanded uncertainty stated by the source.
# Conditions: Liquid, Closed cell (Static) method
smiles,measurement,setting,value
COC [dimethyl ether],vapor or sublimation pressure,233.13 K,54.61 ± 1.4 kPa
same,vapor or sublimation pressure,238.13 K,68.49 ± 1.4 kPa
same,vapor or sublimation pressure,243.16 K,85.57 ± 1.4 kPa
same,vapor or sublimation pressure,248.15 K,105.59 ± 1.4 kPa
same,vapor or sublimation pressure,253.15 K,129.42 ± 1.4 kPa
same,vapor or sublimation pressure,258.16 K,157.53 ± 1.4 kPa
same,vapor or sublimation pressure,263.16 K,190.44 ± 1.4 kPa
same,vapor or sublimation pressure,268.16 K,228.48 ± 1.4 kPa
same,vapor or sublimation pressure,273.15 K,272.17 ± 1.5 kPa
same,vapor or sublimation pressure,278.14 K,321.87 ± 1.5 kPa
same,vapor or sublimation pressure,283.16 K,378.66 ± 1.5 kPa
same,vapor or sublimation pressure,288.17 K,443.57 ± 1.5 kPa
same,vapor or sublimation pressure,293.16 K,515.53 ± 1.6 kPa
same,vapor or sublimation pressure,298.17 K,596.21 ± 1.6 kPa
same,vapor or sublimation pressure,303.16 K,687.37 ± 1.7 kPa
same,vapor or sublimation pressure,305.16 K,726.26 ± 1.8 kPa
same,vapor or sublimation pressure,308.16 K,787.07 ± 1.8 kPa
same,vapor or sublimation pressure,313.16 K,897.59 ± 1.9 kPa
same,vapor or sublimation pressure,316.15 K,968.55 ± 2 kPa
same,vapor or sublimation pressure,318.16 K,1018.9 ± 2 kPa
same,vapor or sublimation pressure,323.15 K,1152.3 ± 2.2 kPa
same,vapor or sublimation pressure,328.15 K,1298.2 ± 2.3 kPa
same,vapor or sublimation pressure,333.16 K,1457.5 ± 2.5 kPa and 1457.8 ± 2.5 kPa
same,vapor or sublimation pressure,338.15 K,1631 ± 2.7 kPa
same,vapor or sublimation pressure,343.15 K,1818.8 ± 3 kPa
same,vapor or sublimation pressure,348.15 K,2022.5 ± 3.2 kPa
same,vapor or sublimation pressure,353.15 K,2242.7 ± 3.5 kPa
same,vapor or sublimation pressure,353.16 K,2243.1 ± 3.5 kPa
same,vapor or sublimation pressure,358.14 K,2479.9 ± 3.9 kPa
same,vapor or sublimation pressure,363.15 K,2735.7 ± 4.3 kPa
same,vapor or sublimation pressure,368.16 K,3010.8 ± 4.7 kPa
same,vapor or sublimation pressure,373.15 K,3305.7 ± 5.2 kPa
same,vapor or sublimation pressure,378.15 K,3622.6 ± 5.7 kPa
same,vapor or sublimation pressure,383.14 K,3962.2 ± 6.2 kPa
same,vapor or sublimation pressure,388.15 K,4331.5 ± 6.8 kPa
same,vapor or sublimation pressure,393.16 K,4725 ± 7.4 kPa
same,vapor or sublimation pressure,398.16 K,5146.8 ± 8 kPa
same,vapor or sublimation pressure,400.38 K,5355.8 ± 8.4 kPa
